Calls of active or inactive are those of the source. The rule behind the calls is not given here.
Tested on: bacterial quorum sensing reporter inhibition
Assay: blockers of quorum-sensing reporter signal in bacteria – dose response (AID 700)

CC(C)CCOP(=O)(c1ccc(N(C)C)cc1)C(O)c1ccccc1F (stereo not drawn)
IC50: > 20 µM (inactive)

CCCn1c(=S)[nH]c2cc(C(=O)N3CCN(c4ccccc4OC)CC3)ccc2c1=O
IC50: > 20 µM (inactive)

Cn1cc(/C=N/n2cnc3sc4c(c3c2=O)CCCC4)c2ccccc21
IC50: > 20 µM (inactive)

CCc1ccc(S(=O)(=O)c2n[nH]n3c2nc(=O)c2ccccc23)cc1
IC50: 1.46 µM

COc1ccc(O)c(C(=O)CC(=O)c2ccc(F)cc2)c1
IC50: > 20 µM (inactive)

O=C(NCC(c1cccnc1)N1CCN(c2ccccc2F)CC1)c1cccc(Cl)c1 (stereo not drawn)
IC50: 1.97 µM

CCOc1ccc(NC(=O)C2CCCN(S(=O)(=O)c3c(C)nn(C)c3C)C2)cc1 (stereo not drawn)
IC50: > 20 µM (inactive)

COC(=O)C1C(=O)C2=C(CC1C)NC(C)=C(C(=O)OC1CCCCC1)C2c1ccc(N(C)C)cc1 (stereo not drawn)
IC50: 9.7 µM

Oc1ccc(-c2nc3ncccn3c2Nc2ccc3c(c2)OCCO3)cc1
IC50: > 20 µM (inactive)

c1csc(CCNc2ncnc3sc4c(c23)CCC4)c1
IC50: > 20 µM (inactive)

O=C(OCC(O)CO)c1ccccc1Nc1ccnc2cc(Cl)ccc12 (stereo not drawn)
IC50: > 20 µM (inactive)

O=C(CSc1n[nH]c(-c2ccco2)n1)Nc1sc2c(c1C(=O)Nc1ccccc1)CCCC2
IC50: 3.32 µM

CC1CCCN(C(C(=O)Nc2ccc3c(c2)OCCO3)c2ccccc2)C1 (stereo not drawn)
IC50: > 20 µM (inactive)

CCc1c(C)nc(SCC(=O)Nc2ccc(Br)cc2)[nH]c1=O
IC50: > 20 µM (inactive)

O=C1CS/C(=N\C(=O)N2c3ccccc3Sc3ccccc32)N1
IC50: 1.42 µM

CCOC(=O)Cn1c(=O)oc2cc(S(=O)(=O)Nc3ccc(N(CC)CC)cc3C)ccc21
IC50: > 20 µM (inactive)

COc1ccc(-c2cnc(SCC(=O)Nc3ccc4c(c3)OCO4)n2Cc2ccco2)cc1
IC50: 16.3 µM (inactive)

O=C(c1ccc(Br)o1)N1CCN(c2ccc3nnc(-c4ccccc4)n3n2)CC1
IC50: > 20 µM (inactive)

CCc1c(C)sc(NC(=O)c2cc(C)on2)c1C#N
IC50: > 20 µM (inactive)

CC(C)[C@@]1(NC(=O)[C@@H]2C[C@@H]3c4cccc5[nH]cc(c45)C[C@H]3N(C)C2)O[C@@]2(O)[C@@H]3CCCN3C(=O)[C@H](Cc3ccccc3)N2C1=O
IC50: > 20 µM (inactive)

Cc1ccc2cc(CN(CCN3CCCC3)C(=O)Nc3ccccc3)c(=O)[nH]c2c1C
IC50: > 20 µM (inactive)

CC1CN(c2nc3ccccc3nc2C(C#N)C(=O)OC2CCCCC2)CC(C)O1 (stereo not drawn)
IC50: > 20 µM (inactive)

CCc1oc2ccccc2c1C(=O)c1ccc(O)cc1
IC50: 3.28 µM

Cn1c(=O)oc2cc(S(=O)(=O)NCCN3CCN(c4ccccc4F)CC3)ccc21
IC50: > 20 µM (inactive)

CC(C)Cc1cc(C(=O)Nc2sc3c(c2C#N)CCCC3)no1
IC50: > 20 µM (inactive)

CCc1oc2ccccc2c1C(=O)c1cc(Br)c(O)c(Br)c1
IC50: 0.74 µM

Cc1ccc(NC(=O)c2cc(C)on2)cc1
IC50: > 20 µM (inactive)

CC1CCN(S(=O)(=O)c2ccc3c(c2)oc(=O)n3CC(=O)NCc2ccc3c(c2)OCO3)CC1
IC50: > 20 µM (inactive)

CC[C@H]1OC(=O)C[C@@H](O)[C@H](C)[C@@H](O[C@@H]2O[C@H](C)C[C@H](N(C)C)[C@H]2O)[C@@H](CC=O)C[C@@H](C)C(=O)C=C[C@]2(C)O[C@H]2[C@@H]1C
IC50: 1.14 µM

O=C(NCCN1CCN(c2ccccc2)CC1)c1cccn2c(=O)c3ccccc3nc12
IC50: > 20 µM (inactive)

COc1ccc(NC(=O)c2c(SC)nsc2SC)cc1
IC50: > 20 µM (inactive)

COc1ccc(N(CC(=O)Nc2nc3ccc(C)cc3s2)S(=O)(=O)c2c(C)nn(C)c2C)cc1
IC50: > 20 µM (inactive)

Fc1ccc(-c2nnc3ccc(N4CCc5ccccc5C4)nn23)cc1
IC50: > 20 µM (inactive)

Cc1cc(NC(=O)C2CCCC2)nc2c1c(=O)oc1ccccc12
IC50: 18.4 µM (inactive)

COc1ccc(OC)c2[nH]c(=O)c(CCNC(=O)C(C)C)cc12
IC50: > 20 µM (inactive)

Cc1ccsc1-c1nc(CSCC(=O)N2CCN(c3ccccc3)CC2)c(C)o1
IC50: 12.4 µM (inactive)

Cn1c(=O)n(CCc2ccccc2)c(=O)c2c1nc1n2CCN1Cc1ccco1
IC50: > 20 µM (inactive)

Cc1ccc(C)c2[nH]c(=O)c(CN(CCN3CCCC3)C(=O)Nc3cccc(Cl)c3)cc12
IC50: 8.19 µM

Cc1nn(C(C)(C)C)c(OC(=O)C2CCCC2)c1S(=O)(=O)c1ccccc1
IC50: > 20 µM (inactive)

Cc1cccc2sc(NC(=O)CN(C)S(=O)(=O)c3ccc(Br)s3)nc12
IC50: > 20 µM (inactive)

CC1CCCCN1S(=O)(=O)c1ccc(C(=O)Nc2nnc(-c3cccs3)o2)cc1 (stereo not drawn)
IC50: > 20 µM (inactive)

CCOC(=O)C1=C(C)NC(C)=C(C(=O)OC)C1c1cccc(Cl)c1Cl (stereo not drawn)
IC50: > 20 µM (inactive)

Cc1cccc(Nc2ccccc2C(=O)O)c1C
IC50: 1.02 µM

CCOC(=O)N1CCC(NC(=O)Cn2nc(Cc3ccncc3)c3ccccc3c2=O)CC1
IC50: 5.8 µM

CCCCC(=O)Nc1cc(C)c2c(=O)oc3ccccc3c2n1
IC50: > 20 µM (inactive)

Cc1nc2ccccn2c1/C(O)=C1\C(=O)C(=O)N(CCCN(C)C)C1c1ccc(F)cc1 (stereo not drawn)
IC50: > 20 µM (inactive)

CC(C)CC(NC(=O)c1ccco1)C(=O)Nc1ccc2c(c1)OCCO2 (stereo not drawn)
IC50: > 20 µM (inactive)

Cc1ccc(C)c2[nH]c(=O)c(CN(CCN3CCCC3)C(=O)Nc3ccc(F)cc3)cc12
IC50: > 20 µM (inactive)

CCn1c2ccccc2c2cc(NC(=O)CSc3nnc(C4CC4)n3Cc3ccco3)ccc21
IC50: > 20 µM (inactive)

N#Cc1c(NC(NC(=O)c2ccco2)C(=O)c2ccccc2)sc2c1CCCC2 (stereo not drawn)
IC50: > 20 µM (inactive)

O=C(O)c1ccccc1Nc1cccc(C(F)(F)F)c1
IC50: > 20 µM (inactive)

O=C(O)CCc1cc(I)c(Oc2ccc(O)c(I)c2)c(I)c1
IC50: 1.78 µM

Clc1ccc(OCc2nnc3n2N=C(c2ccc4c(c2)OCCO4)CS3)c(Cl)c1
IC50: > 20 µM (inactive)

Cc1c(Cl)cccc1Nc1ccccc1C(=O)O
IC50: 1.89 µM

Nc1c(C(O)(C(F)(F)F)C(F)(F)F)ccc2ccccc12
IC50: > 20 µM (inactive)

Cn1cccc1Cc1nnc(SCC(=O)Nc2ccccc2)n1-c1ccc(F)cc1
IC50: > 20 µM (inactive)

CCc1ccc2[nH]c(=O)c(CN(CCCN3CCOCC3)C(=O)Nc3cccc(Cl)c3)cc2c1
IC50: > 20 µM (inactive)

Cc1ccc(C)c(N2CCN(C(=O)CCCCn3c(=O)[nH]c4ccccc4c3=O)CC2)c1
IC50: > 20 µM (inactive)

COc1cccc(-c2cc(C(F)(F)F)nc(NCc3ccco3)n2)c1
IC50: > 20 µM (inactive)

Cc1ccc(-c2nc(CS(=O)CC(=O)NCCC(C)C)c(C)o2)cc1 (stereo not drawn)
IC50: > 20 µM (inactive)

O=C(CCCCn1c(=O)[nH]c2ccccc2c1=O)N1CCN(c2cccc(C(F)(F)F)c2)CC1
IC50: > 20 µM (inactive)

COc1ccc(-c2nc(C(N)=O)c3[nH]c(=O)n(-c4cccc(Cl)c4)c3n2)cc1OC
IC50: > 20 µM (inactive)

CCCCOC(=O)Cn1c(=O)oc2ccc(C)cc21
IC50: > 20 µM (inactive)

COc1cc2[nH]c(=O)n(CCC(=O)N3CCN(c4cc(Cl)ccc4C)CC3)c(=O)c2cc1OC
IC50: > 20 µM (inactive)

O=C(Nc1nc2c(s1)CCc1ccccc1-2)c1cccs1
IC50: > 20 µM (inactive)

Cc1cc(C)c2cc(CN(CCN3CCCC3)C(=O)Nc3ccc(F)cc3)c(=O)[nH]c2c1
IC50: > 20 µM (inactive)

O=C(NCCCc1ccccc1)c1cnc2n(c1=O)CCS2
IC50: > 20 µM (inactive)

CCCCc1oc2ccccc2c1C(=O)c1cc(I)c(OCCN(CC)CC)c(I)c1
IC50: > 20 µM (inactive)

CCc1ccc2[nH]c(=O)c(CN(CCCN3CCOCC3)C(=O)Nc3ccc(F)cc3)cc2c1
IC50: > 20 µM (inactive)

CCC(=O)O[C@@H]1CC(=O)O[C@H](C)CC=CC=C[C@@H](O)[C@H](C)C[C@H](CC=O)[C@H](O[C@H]2O[C@H](C)[C@@H](O[C@H]3C[C@@](C)(O)[C@@H](OC(=O)CC)[C@H](C)O3)[C@H](N(C)C)[C@H]2O)[C@H]1OC
IC50: 0.55 µM

CC1CCCN(C(C(=O)Nc2ccc3c(c2)OCO3)c2ccccc2)C1 (stereo not drawn)
IC50: 1.25 µM

Cc1ccc2[nH]c(=O)c(CN(CCCN(C)C)C(=O)Nc3cccc(Cl)c3)cc2c1
IC50: > 20 µM (inactive)

Cc1cc(NC(=O)CC(C)(C)C)nc2c1c(=O)oc1ccccc12
IC50: > 20 µM (inactive)

c1ccc(-c2ccc(C(c3ccccc3)n3ccnc3)cc2)cc1 (stereo not drawn)
IC50: > 20 µM (inactive)

N#Cc1c(NC(=O)COC(=O)C2CC3C=CC2C3)oc(-c2ccccc2)c1-c1ccccc1 (stereo not drawn)
IC50: 0.68 µM

CCOC(=O)C(C)(C)Sc1nc2c(cnn2-c2ccc(C)cc2)c(=O)[nH]1
IC50: > 20 µM (inactive)

CCc1ccc(N/C(SCc2cccc(F)c2)=C(/C#N)C(=O)NCc2ccco2)cc1
IC50: > 20 µM (inactive)

Cc1ccc(Cl)c(Nc2ccccc2C(=O)O)c1Cl
IC50: 3.13 µM

O=C(CN1C(=O)CC(c2ccco2)Sc2ccccc21)NCc1ccc2c(c1)OCO2 (stereo not drawn)
IC50: 16.5 µM (inactive)

COc1ccc(Nc2nc(-c3sc(N)nc3C)cs2)cc1
IC50: > 20 µM (inactive)

COc1ccc(-c2oc3ncn(CCN4CCOCC4)c(=N)c3c2-c2ccc(OC)cc2)cc1
IC50: > 20 µM (inactive)

COc1cccc(Oc2cnc(N)nc2-c2ccc(OC)cc2O)c1
IC50: > 20 µM (inactive)

O=C(NC(=O)c1cccc(F)c1)OC[C@@H]1CCCN2CCCC[C@H]12
IC50: > 20 µM (inactive)

Cc1ccc2[nH]c(=O)c(CN(CCCN(C)C)C(=O)Nc3ccc(Cl)cc3)cc2c1
IC50: 9.03 µM

COC(=O)c1ccc(CSc2nc3c(cnn3-c3ccc(Cl)cc3)c(=O)[nH]2)o1
IC50: > 20 µM (inactive)

Cc1ccc(N2CC(C(=O)NC3=NCCS3)CC2=O)cc1 (stereo not drawn)
IC50: > 20 µM (inactive)

COC(=O)c1[nH]nc2c1C(=O)N(C1CCCCC1)C2=O
IC50: 12.7 µM (inactive)

CC1(C)S[C@@H]2[C@H](NC(=O)[C@H](N)c3ccccc3)C(=O)N2[C@H]1C(=O)O
IC50: > 20 µM (inactive)

CC(C)N=c1cc2n(-c3ccc(Cl)cc3)c3ccccc3nc-2cc1Nc1ccc(Cl)cc1
IC50: > 20 µM (inactive)

CCc1ccc2[nH]c(=O)c(CN(CCCN3CCOCC3)C(=O)Nc3ccc(Cl)cc3)cc2c1
IC50: > 20 µM (inactive)

CCN1CCCC1CN(Cc1cc2c(C)cc(C)cc2[nH]c1=O)C(=O)NC1CCCCC1 (stereo not drawn)
IC50: > 20 µM (inactive)

O=C(CN1C(=O)CC(c2ccco2)Sc2ccccc21)Nc1ccc2c(c1)OCCO2 (stereo not drawn)
IC50: > 20 µM (inactive)

COCCn1nnnc1C(c1cc2cc(OC)ccc2[nH]c1=O)N1CCC(Cc2ccccc2)CC1 (stereo not drawn)
IC50: > 20 µM (inactive)
